In article PMC10865806, “Structural insights into the molecular mechanism of high-level ceftazidime–avibactam resistance conferred by CMY-185” (mBio, 2024):
≈ marks a conversion by molar mass, not a printed value.

Columns and labels:
CMY-2 variant N346Y = target: T1, CMY-2 variant N346Y (Klebsiella pneumoniae, UniProt Q48434, N366Y); test: Steady-state hydrolysis kinetics; assay type: biochemical, Escherichia coli; settings: substrate 100 µM, 100–200 nM enzyme
T1 construct: all CMY-2 variant genes encoding the mature enzyme without a signal peptide were cloned into the protein expression plasmid vector pET-30b; made in house; host or cells: E. coli BL21 (DE3), pET-30b
Excerpt: (§1) We tested the enzymes, CMY-2, two single mutants V211S (CMY-42) and N346Y, three double mutants A114E_N346Y, Q120K_N346Y, and V211S_N346Y, and the quadruplet mutant CMY-185 to elucidate the impact on the kinetic properties resulting from the four amino acid substitutions present in CMY-185 compared with CMY-2 ([8]). The steady-state kinetic parameters kcat and Km (or Ki app) for nitrocefin, cephalothin, ceftazidime, and cefiderocol and the inhibition parameters Ki app, k2/K, k−2, and koff for avibactam are summarized in Table 1. During the hydrolysis of nitrocefin, we observed the reduction of the initial velocity at concentrations above 50 µM particularly for the CMY-2 variants harboring the N346Y substitution. As this could have represented substrate inhibition, we then determined the kinetics parameters for nitrocefin using the Haldane equation ([16]). […] In addition, during the hydrolysis of cefiderocol by CMY-185, the initial velocities at a concentration range of 3.7–59.4 µM were similar.
(§2) The steady-state kinetics were carried out on a UV-Visible spectrometer (UV-1280, Shimadzu, Japan) in PBS pH 7.2 at 25°C with a constant amount of enzyme and varying concentrations of the substrates. We tested nitrocefin, cephalothin, ceftazidime, and cefiderocol as the substrates and avibactam as the inhibitor. The steady-state kinetics parameters Km and kcat were determined with the Michaelis-Menten equation. For poorly hydrolyzed substrates, the Km value was assumed to be the competitive inhibition constant (Ki app) value according to previous studies ([17], [19]). Inhibition parameter values of Ki app, k2/K, k−2, and koff for avibactam were determined using a method as described previously ([33]). Cephalothin was used as the reporter substrate for competitive inhibition experiments, and its concentration was fixed at 100 µM. […] Inverse steady-state initial velocities were plotted against the concentration of the competitive inhibitor agents, such as ceftazidime, cefiderocol, and avibactam. The data were analyzed by linear regression analysis of the Dixon plot, and Ki app (observed) was determined by dividing the y-intercept value by the slope of the line. It was then corrected to account for the affinity of cephalothin for each enzyme using the Equation (1): […]

[1] = target: T2, CMY-2 variant A114E_N346Y (Klebsiella pneumoniae, UniProt Q48434, A134E/N366Y); test: Steady-state hydrolysis kinetics; assay type: biochemical, Escherichia coli; settings: substrate 100 µM, 100–200 nM enzyme
T2 construct: all CMY-2 variant genes encoding the mature enzyme without a signal peptide were cloned into the protein expression plasmid vector pET-30b; made in house; host or cells: E. coli BL21 (DE3), pET-30b
Excerpt: as §1, §2

CMY-2 = target: T3, CMY-2 (Klebsiella pneumoniae, UniProt Q48434); test: Steady-state hydrolysis kinetics; assay type: biochemical, Escherichia coli; settings: substrate 100 µM, 100–200 nM enzyme
T3 construct: all CMY-2 variant genes encoding the mature enzyme without a signal peptide were cloned into the protein expression plasmid vector pET-30b; made in house; host or cells: E. coli BL21 (DE3), pET-30b
Excerpt: as §1, §2

AmpC^Ent385 = tested on: AmpC^Ent385; design: method as in PMID 32284381; settings: lowest Km reported to date; cited from earlier work
CMY-178 = settings: cited from earlier work
V211S (CMY-42) = target: T4, V211S (CMY-42) (Klebsiella pneumoniae, UniProt Q48434, V231S); test: Steady-state hydrolysis kinetics; assay type: biochemical, Escherichia coli; settings: PBS pH 7.2, 25°C
T4 construct: all CMY-2 variant genes encoding the mature enzyme without a signal peptide were cloned into the protein expression plasmid vector pET-30b; made in house; host or cells: E. coli BL21 (DE3), pET-30b
Excerpt: as §1
(§3) The steady-state kinetics were carried out on a UV-Visible spectrometer (UV-1280, Shimadzu, Japan) in PBS pH 7.2 at 25°C with a constant amount of enzyme and varying concentrations of the substrates. We tested nitrocefin, cephalothin, ceftazidime, and cefiderocol as the substrates and avibactam as the inhibitor. The steady-state kinetics parameters Km and kcat were determined with the Michaelis-Menten equation. For poorly hydrolyzed substrates, the Km value was assumed to be the competitive inhibition constant (Ki app) value according to previous studies ([17], [19]). Inhibition parameter values of Ki app, k2/K, k−2, and koff for avibactam were determined using a method as described previously ([33]). Cephalothin was used as the reporter substrate for competitive inhibition experiments, and its concentration was fixed at 100 µM. The enzyme concentration was 1–10 nM. Inverse steady-state initial velocities were plotted against the concentration of the competitive inhibitor agents, such as ceftazidime, cefiderocol, and avibactam. The data were analyzed by linear regression analysis of the Dixon plot, and Ki app (observed) was determined by dividing the y-intercept value by the slope of the line. It was then corrected to account for the affinity of cephalothin for each enzyme using the Equation (1): […]

[2] = target: T5, CMY-2 variant Q120K_N346Y (Klebsiella pneumoniae, UniProt Q48434, N366Y/Q140K); test: Steady-state hydrolysis kinetics; assay type: biochemical, Escherichia coli; settings: substrate 100 µM, 100–200 nM enzyme
T5 construct: all CMY-2 variant genes encoding the mature enzyme without a signal peptide were cloned into the protein expression plasmid vector pET-30b; made in house; host or cells: E. coli BL21 (DE3), pET-30b
Excerpt: as §1, §3

[3] = target: T6, CMY-2 variant V211S_N346Y (Klebsiella pneumoniae, UniProt Q48434, N366Y/V231S); test: Steady-state hydrolysis kinetics; assay type: biochemical, Escherichia coli
T6 construct: all CMY-2 variant genes encoding the mature enzyme without a signal peptide were cloned into the protein expression plasmid vector pET-30b; made in house; host or cells: E. coli BL21 (DE3), pET-30b
Excerpt: as §1, §3

CMY-185 = target: T7, CMY-185 (Klebsiella pneumoniae, UniProt Q48434, A134E/N366Y/Q140K/V231S); test: Steady-state hydrolysis kinetics; assay type: biochemical, Escherichia coli
T7 construct: all CMY-2 variant genes encoding the mature enzyme without a signal peptide were cloned into the protein expression plasmid vector pET-30b; made in house; host or cells: E. coli BL21 (DE3), pET-30b
Excerpt: as §1, §3

CMY-172 = settings: cited from earlier work

CC(C)(O/N=C(\C(=O)N[C@@H]1C(=O)N2C(C(=O)[O-])=C(C[N+]3(CCNC(=O)c4ccc(O)c(O)c4Cl)CCCC3)CS[C@H]12)c1csc(N)n1)C(=O)O [Cefiderocol, cefiderocol]
hydrolysis (CMY-2 variant N346Y): no apparent hydrolysis | hydrolysis [1]: no apparent hydrolysis | hydrolysis (CMY-2): no apparent hydrolysis | Km (AmpC^Ent385): 49.8 µM | MIC (CMY-178): 1 µg/mL (≈ 1.33 µM) | Km (V211S (CMY-42)): 68 ± 11 µM | kcat (V211S (CMY-42)): 0.034 ± 0.002 s⁻¹ | kcat (V211S (CMY-42); listed as cefiderocol): (3.4 ± 0.2) × 10^−2 s^−1 | hydrolysis [2]: no apparent hydrolysis | fold lower Km ([3]; V211S_N346Y compared to V211S): 10 fold | Km ([3]; V211S_N346Y, PBS pH 7.2, 25°C): 6.9 ± 1.5 µM | kcat ([3]; V211S_N346Y, PBS pH 7.2, 25°C): 0.049 ± 0.003 s⁻¹ | kcat (CMY-185; determined with steady-state velocities (cefiderocol 3.7–59.4 µM) and Ki app assumed to Km): 6.9 × 10^−3 ± 0.4 ×10^−3 a s^−1 | kcat/Ki app (CMY-185; kcat/Ki app shown in the kcat/Km line): 3.0 × 10^−2 ± 0.2 × 10^−2 b µM^−1 s^−1 | MIC (CMY-172): 1 µg/mL (≈ 1.33 µM)
